Reference: PubChem BioAssay AID634 (Vanderbilt High Throughput Screening Facility, 2007)
Activity calls are given as the source filed them. The rule behind the calls is not given here.

target: Voltage-gated potassium channel subunit beta-2 (Rattus norvegicus) (UniProt P62483); experiment: KvBeta positive modulator confirmation, biochemical (AID 634); conditions: Rat Kvbeta2 enzymatic assay, slope read-out; stronger effect = lower value
Sequence (P62483 whole entry, looked up): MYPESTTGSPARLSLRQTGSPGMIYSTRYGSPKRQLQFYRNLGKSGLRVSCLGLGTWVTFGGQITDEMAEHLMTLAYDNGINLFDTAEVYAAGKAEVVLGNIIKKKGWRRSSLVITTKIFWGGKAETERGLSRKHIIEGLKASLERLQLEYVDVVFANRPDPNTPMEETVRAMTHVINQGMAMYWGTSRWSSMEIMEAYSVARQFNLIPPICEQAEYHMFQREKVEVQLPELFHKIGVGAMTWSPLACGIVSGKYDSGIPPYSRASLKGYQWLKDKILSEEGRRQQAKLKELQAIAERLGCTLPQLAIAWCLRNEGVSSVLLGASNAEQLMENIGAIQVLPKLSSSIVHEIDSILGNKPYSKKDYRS

Compound	slope
O=C(NCc1cccs1)C(Cc1ccccc1)NS(=O)(=O)c1cccs1 (configuration not stated)	0.0568 (inactive)
CC(O)CNc1nc2c(c(=O)n(C)c(=O)n2C)n1CCc1ccccc1 (configuration not stated)	0.0661 (inactive)
O=C(C1=C(O)C(=O)N(CCCN2CCOCC2)C1c1ccccn1)c1cc2ccccc2o1 (configuration not stated)	0.134 (inactive)
CC(c1ccco1)N(C(=O)c1ccc(S(=O)(=O)N2CCCCC2)cc1)c1ccccn1 (configuration not stated)	0.0766 (inactive)
NS(=O)(=O)c1cc2c(cc1Cl)NC=NS2(=O)=O	0.0676 (inactive)
Cn1c(SCC(=O)Nc2ccc3c(c2)oc2ccccc23)nnc1-c1ccccc1	0.119 (inactive)
CCOc1ccccc1Nc1nc2ccccc2[nH]1	0.0352 (inactive)
C=CCn1c(SCC(=O)NCC2CCCO2)nc2scc(-c3ccco3)c2c1=O (configuration not stated)	0.0642 (inactive)
CN1C(=S)SC(C)(NO)C1(C)C (configuration not stated)	-0.536
CCOC(=O)C1=C(N)OC(C)=C(C(=O)OCCOC)C12C(=O)Nc1ccccc12 (configuration not stated)	0.0877 (inactive)
Cc1ccc(N2C(=O)C3ON(c4ccccc4)C(c4ccncc4)C3C2=O)cc1 (configuration not stated)	0.0514 (inactive)
COc1ccccc1C1/C(=C(/O)c2ccc(OC(C)C)cc2)C(=O)C(=O)N1c1cc(C)on1 (configuration not stated)	0.0306 (inactive)
CCCCCC#CCC#CCC#CCC#CCCCC(=O)O	-0.0283 (inactive)
CCn1cc(C(=O)Nc2cc3c(cc2NC(C)=O)OCCO3)c(=O)c2ccc(C)nc21	0.112 (inactive)
CC(=O)Oc1ccc2c(C)cc(=O)[nH]c2c1	0.0957 (inactive)
CCOC(=O)CNC(=O)Nc1ccccc1C(=O)OC	0.092 (inactive)
COc1cccc(Oc2ccc(N)cc2)c1	0.062 (inactive)
Cc1ccc2c(c1)[C@@H]1CN(C)CC[C@@H]1N2C(=O)Nc1cccc(C(F)(F)F)c1	-0.0275 (inactive)
CCCCOc1ccc(-c2nnn(C(C)(C)C(=O)OC)n2)cc1	0.0535 (inactive)
CCN(CC)CCCn1c(=S)[nH]c2cc(Cl)ccc2c1=O	0.133 (inactive)
O=c1c2ccccc2[se]n1-c1ccccc1	-0.798
O=C(NCCC1=CCCCC1)N[C@@H](Cc1ccccc1)C(=O)O	0.0842 (inactive)
